Results taken from patent EP3502102A1, “STING INHIBITORS” (ECOLE POLYTECHNIQUE FEDERALE DE LAUSANNE (EPFL), priority 2017, dated 2019).

Legend:
Assay type in all cases: cell-based
STING = target: T1, STING (Mus musculus, UniProt Q3TBT3); assay: Blue native gel assay of STING clusters; design: expressed in transfected cells; host or cells: HEK293T; conditions: C-178, C-176 1 µM, 2-BP 50 µM; CMA 1.5 h
T1 sequence (Q3TBT3 1-378): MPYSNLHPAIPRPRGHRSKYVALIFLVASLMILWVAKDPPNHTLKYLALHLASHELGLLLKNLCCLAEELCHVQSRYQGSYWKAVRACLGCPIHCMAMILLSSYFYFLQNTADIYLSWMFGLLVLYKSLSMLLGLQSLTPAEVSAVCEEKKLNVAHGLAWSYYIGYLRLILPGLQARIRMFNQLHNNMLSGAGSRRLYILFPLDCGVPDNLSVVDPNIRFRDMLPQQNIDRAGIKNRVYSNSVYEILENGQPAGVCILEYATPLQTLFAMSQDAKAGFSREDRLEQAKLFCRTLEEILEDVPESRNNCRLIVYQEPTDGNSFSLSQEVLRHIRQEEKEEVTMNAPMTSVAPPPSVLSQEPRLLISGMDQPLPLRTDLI
Protocol: (§1) Reporter activity was measured 16 h after compound treatment. A nonlinear regression analysis was performed. […] Circles indicate substitutes compared to C-176. d, e, Chemical compounds from (c) were tested at 0.5 µM for inhibitory activity in HEK293T cells transfected with STING (e) or RIG-I (f) in conjunction with IFN-• luciferase reporter, respectively. b, e, f, Values of inhibitor-treated cells were normalized to DMSO-treated cells. […] Cytokine levels were normalized to DMSO-treated control cells. A nonlinear regression analysis was performed for cGAMP stimulation. b, c, BMDMs were pre-treated with C-178 (0.25 µM) and stimulated with cGAMP, cyclic di-GMP, CMA, 90mer dsDNA or LPS for 3 h. The induction of Ifnb1 mRNA levels was assessed by RT-qPCR. d, Heatmaps of RNA sequencing analysis of BMDMs treated with DMSO or CMA and with or without addition of C-178. […] Reporter activity was measured 16 h after transfection and values were normalized to DMSO-treated control cells. c, BMDMs were treated with C-178 (0.25 µM) for 1 h, washed or left untreated and after an additional hour stimulated with cGAMP. […] Flag-STING was immunoprecipitated from whole cell lysate and analysed by autoradiography. In parallel, cell lysates were analysed by immunoblotting for p-TBK1 and STING. d, HEK293T cells expressing STING were treated as indicated (C-178 (1 µM)) and stimulated with CMA for 1.5 h. […]

RIG-I = target: T2, RIG-I (Homo sapiens, UniProt O95786); assay: IFN-beta luciferase reporter in HEK293T cells transfected with RIG-I (counter-screen); conditions: 0.01-5µM
T2 construct: expressed in transfected cells; host or cells: HEK293T
T2 sequence (O95786 1-925): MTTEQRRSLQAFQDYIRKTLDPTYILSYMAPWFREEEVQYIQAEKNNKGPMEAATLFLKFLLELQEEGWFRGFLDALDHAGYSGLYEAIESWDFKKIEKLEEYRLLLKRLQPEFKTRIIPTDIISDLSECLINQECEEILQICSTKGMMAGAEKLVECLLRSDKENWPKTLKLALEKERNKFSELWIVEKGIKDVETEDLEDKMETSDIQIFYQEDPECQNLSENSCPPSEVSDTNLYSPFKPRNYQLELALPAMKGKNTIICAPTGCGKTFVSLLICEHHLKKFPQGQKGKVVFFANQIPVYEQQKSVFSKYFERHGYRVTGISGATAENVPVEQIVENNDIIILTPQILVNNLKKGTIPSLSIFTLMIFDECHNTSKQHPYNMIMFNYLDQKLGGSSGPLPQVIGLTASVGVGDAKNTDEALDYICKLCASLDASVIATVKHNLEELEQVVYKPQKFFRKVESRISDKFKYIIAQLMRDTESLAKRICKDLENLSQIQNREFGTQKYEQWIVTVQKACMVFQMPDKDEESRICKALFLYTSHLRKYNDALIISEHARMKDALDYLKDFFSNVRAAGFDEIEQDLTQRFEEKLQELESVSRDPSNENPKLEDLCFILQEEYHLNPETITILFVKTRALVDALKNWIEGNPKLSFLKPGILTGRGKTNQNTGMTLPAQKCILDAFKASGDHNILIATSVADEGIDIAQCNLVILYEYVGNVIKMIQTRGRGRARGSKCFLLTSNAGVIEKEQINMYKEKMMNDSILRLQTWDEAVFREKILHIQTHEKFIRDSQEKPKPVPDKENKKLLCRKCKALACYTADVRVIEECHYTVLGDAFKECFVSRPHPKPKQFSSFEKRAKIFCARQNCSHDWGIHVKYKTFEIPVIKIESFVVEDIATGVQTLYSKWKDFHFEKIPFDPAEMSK
Protocol: as §1

[1] = target: T3, endogenous human transferrin receptor (Homo sapiens, UniProt P02786); assay: Metabolic labelling with [3H] palmitate, endogenous transferrin receptor; conditions: 1 µM
T3 construct: endogenous in cells; host or cells: HEK293T
T3 sequence (P02786 whole entry): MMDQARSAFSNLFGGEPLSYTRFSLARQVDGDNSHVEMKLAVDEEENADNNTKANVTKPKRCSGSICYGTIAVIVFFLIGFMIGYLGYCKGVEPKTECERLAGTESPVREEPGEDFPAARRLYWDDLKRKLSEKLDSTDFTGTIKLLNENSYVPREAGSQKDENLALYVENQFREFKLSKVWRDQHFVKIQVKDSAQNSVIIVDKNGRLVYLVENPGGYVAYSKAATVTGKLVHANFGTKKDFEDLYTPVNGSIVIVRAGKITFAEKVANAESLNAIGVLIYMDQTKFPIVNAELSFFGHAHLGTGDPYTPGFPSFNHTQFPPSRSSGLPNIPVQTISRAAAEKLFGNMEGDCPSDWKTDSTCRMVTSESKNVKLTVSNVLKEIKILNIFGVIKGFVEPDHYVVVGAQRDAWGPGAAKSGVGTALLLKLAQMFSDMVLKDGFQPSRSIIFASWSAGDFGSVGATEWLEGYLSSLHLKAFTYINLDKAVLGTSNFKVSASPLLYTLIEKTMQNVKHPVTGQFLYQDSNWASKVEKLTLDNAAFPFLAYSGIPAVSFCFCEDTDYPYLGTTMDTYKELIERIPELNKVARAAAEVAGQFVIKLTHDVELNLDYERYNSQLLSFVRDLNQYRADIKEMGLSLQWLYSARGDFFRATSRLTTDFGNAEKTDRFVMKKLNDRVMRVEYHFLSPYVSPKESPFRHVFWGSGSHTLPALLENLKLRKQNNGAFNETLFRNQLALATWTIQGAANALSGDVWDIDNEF

SMILES: O=C(Nc1ccc(I)cc1)c1ccc([N+](=O)[O-])o1 [C-176, N-(4-iodophenyl)-5-nitro-2-furamide]
- assembly of STING clusters (STING): blocked
- RIG-I-driven IFN induction (RIG-I): neither RIG-I nor TBK1-driven IFN induction was affected
- [^3H] palmitate labelling of the endogenous transferrin receptor [1]: neither C-178 nor C-176 affected
